{"source": "patent US4204990A", "about": "“Somatostatin analogues” (American Home Products Corporation, priority 1978, dated 1980)", "assay_type_in_all_cases": "in vivo, rat", "key": {"[1]": {"system": "insulin", "test": "Arginine-stimulated insulin level in Nembutal-anaesthetised rats after subcutaneous test compound", "conditions": "p<0.01", "procedure": "(§1) Albino male rats were administered Nembutal intraperitoneally at a dose of 50 milligrams per kilogram. Fifteen minutes later a subcutaneous injection of the test compound or physiological saline was administered. Ten minutes later 0.5 milliliters of arginine (300 milligrams per milliliter, pH 7.2) is injected into the heart. Five minutes after receipt of the arginine the rats are decapitated and blood is collected into trasylol-EDTA. An appropriate aliquot was assayed for growth hormone, insulin and glucagon."}, "[2]": {"system": "glucagon", "test": "Arginine-stimulated glucagon level in Nembutal-anaesthetised rats after subcutaneous test compound", "procedure": "as §1"}, "[3]": {"system": "growth hormone", "test": "Duration of activity: plasma growth hormone by radioimmunoassay at hours after SC injection", "conditions": "for GH (duration of activity) / GH (duration of growth hormone suppression): 1,000 μg/kg", "procedure": "The animals were kept in separate cages. Twenty minutes before the end of the test, 50 mg/kg Nembutal® was administered to all the rats (i.p.). […] Plasma was separated and growth hormone concentration was determined by radio immunoassay. Comparisons between the control and experimental growth hormone values were evaluated by the Student \"t\" test and statistical significance at the 0.05 level or lower was used as the index of activity. Based upon that test [Brazeau et al., Science, 170, 77 (1973)], the prolonged growth hormone suppression by the compounds of this invention was established. The data obtained for the product of Example 1, illustrative of the duration of activity of the other compounds of this invention, is as follows: […]"}, "[4]": {"system": "growth hormone", "test": "Arginine-stimulated growth hormone level in Nembutal-anaesthetised rats after subcutaneous test compound", "conditions": "for GH: p<0.01", "procedure": "as §1"}, "[5]": {"conditions": "dose 2,000 μg/kg, control 34 ± 4"}, "[6]": {"conditions": "dose 2,000 μg/kg, control 38 ± 6"}, "[7]": {"conditions": "dose 2,000 μg/kg, control 220 ± 17"}}, "note": "Structures can show the parent of a compound that is named as a salt. Positions of bridges follow the written chain, without caps; N, C: chain ends. Non-standard residues stand in square brackets, D forms with d. Residues, ends and D or L forms follow the SMILES beside them."}
{"smiles": "C[C@@H](O)[C@@H]1NC(=O)[C@H](Cc2ccccc2)NC(=O)[C@H]([C@@H](C)O)NC(=O)[C@H](CCCCN)NC(=O)[C@@H](Cc2c[nH]c3ccccc23)NC(=O)[C@H](Cc2ccccc2)NC(=O)[C@H](Cc2ccccc2)NC(=O)[C@@H](CCCNC(=N)N)NC(=O)[C@H](CCCNC(=N)N)NC(=O)[C@@H](N)CSSC[C@@H](C(=O)O)NC(=O)[C@H](CO)NC1=O", "note": "[Ex. 2, L-Cysteinyl-L-arginyl-D-arginyl-L-phenylalanyl-L-phenylalanyl-D-tryptophyl- L-lysyl-L-threonyl-L-phenylalanyl-L-threonyl-L-seryl-L-cysteine cyclic (1→12)-disulfide tetraacetate (salt)] (H-CR[dR]FF[dW]KTFTSC-OH; disulfide 1-12)", "values": [{"measurement": "INS", "setting": "[1]; dose 1,000 μg/kg, control 227 ± 19", "value": "89 ± 8", "unit": "µU/mL"}, {"measurement": "GLUN", "setting": "[2]; dose 1,000 μg/kg, control 61 ± 7", "value": "44 ± 8", "unit": "pg/mL"}, {"measurement": "GH (duration of activity)", "setting": "[3]; 2 hours, control 303 ± 53, p<0.001", "value": "54 ± 11", "unit": "ng/mL"}, {"measurement": "GH (duration of activity)", "setting": "[3]; 4 hours, control 73 ± 7", "value": "83 ± 9", "unit": "ng/mL"}, {"measurement": "GH", "setting": "[4]; dose 1,000 μg/kg, control 141 ± 14", "value": "4 ± 3", "unit": "ng/mL"}]}
{"smiles": "C[C@@H](O)[C@@H]1NC(=O)[C@H](Cc2ccccc2)NC(=O)[C@H]([C@@H](C)O)NC(=O)[C@H](CCCCN)NC(=O)[C@@H](Cc2c[nH]c3ccccc23)NC(=O)[C@H](Cc2ccccc2)NC(=O)[C@H](Cc2ccccc2)NC(=O)[C@@H](CO)NC(=O)[C@H](CCCNC(=N)N)NC(=O)[C@@H](N)CSSC[C@@H](C(=O)O)NC(=O)[C@H](CO)NC1=O", "note": "[Ex. 3, L-Cysteinyl-L-arginyl-D-seryl-L-phenylalanyl-L-phenylalanyl-D-tryptophyl-L- lysyl-L-threonyl-L-phenylalanyl-L-threonyl-L-seryl-L-cysteine cyclic (1→12)-disulfide triacetate (salt)] (H-CR[dS]FF[dW]KTFTSC-OH; disulfide 1-12)", "values": [{"measurement": "INS", "setting": "[1]; [5]", "value": "8 ± 1", "unit": "μU/ml"}, {"measurement": "GLUN", "setting": "[2]; [6]", "value": "26 ± 5", "unit": "pg/mL"}, {"measurement": "GH (duration of activity)", "setting": "[3]; 2 hours, control 290 ± 64, p<0.02", "value": "91 ± 29", "unit": "ng/mL"}, {"measurement": "GH (duration of activity)", "setting": "[3]; 4 hours, control 133 ± 38, p<0.1 (not significant)", "value": "57 ± 12", "unit": "ng/mL"}, {"measurement": "GH", "setting": "[4]; [7]", "value": "37 ± 9", "unit": "ng/mL"}]}
{"smiles": "C[C@@H](O)[C@@H]1NC(=O)[C@H](Cc2ccccc2)NC(=O)[C@H]([C@@H](C)O)NC(=O)[C@H](CCCCN)NC(=O)[C@@H](Cc2c[nH]c3ccccc23)NC(=O)[C@H](Cc2ccccc2)NC(=O)[C@H](Cc2ccccc2)NC(=O)[C@@H](Cc2c[nH]cn2)NC(=O)[C@H](CCCNC(=N)N)NC(=O)[C@@H](N)CSSC[C@@H](C(=O)O)NC(=O)[C@H](CO)NC1=O", "note": "[Ex. 4, L-Cysteinyl-L-arginyl-D-histidyl-L-phenylalanyl-L-phenylalanyl-D-tryptophyl-L-lysyl-L-threonyl-L-phenylalanyl-L-threonyl-L-seryl-L-cysteine cyclic (1→12) disulfide tetra-acetate (salt)] (H-CR[dH]FF[dW]KTFTSC-OH; disulfide 1-12)", "values": [{"measurement": "INS", "setting": "[1]; dose 500 μg/kg, control 280 ± 15", "value": "127 ± 22", "unit": "μU/ml"}, {"measurement": "GLUN", "setting": "[2]; dose 500 μg/kg, control 44 ± 6", "value": "29 ± 5", "unit": "pg/mL"}, {"measurement": "GH (duration of activity)", "setting": "[3]; 2 hours, control 82 ± 25, p<0.05", "value": "24 ± 5", "unit": "ng/mL"}, {"measurement": "GH (duration of activity)", "setting": "[3]; 4 hours, control 76 ± 28, p<0.1 (not significant)", "value": "20 ± 7", "unit": "ng/mL"}, {"measurement": "GH (duration of activity)", "setting": "[3]; 5 hours, control 171 ± 38, p<0.02", "value": "54 ± 11", "unit": "ng/mL"}, {"measurement": "GH (duration of activity)", "setting": "[3]; 6 hours, control 73 ± 10", "value": "54 ± 13", "unit": "ng/mL"}, {"measurement": "GH", "setting": "[4]; dose 500 μg/kg, control 119 ± 29", "value": "6 ± 1", "unit": "ng/mL"}]}
{"smiles": "C[C@@H](O)[C@@H]1NC(=O)[C@H](Cc2ccccc2)NC(=O)[C@H]([C@@H](C)O)NC(=O)[C@H](CCCCN)NC(=O)[C@@H](Cc2c[nH]c3ccccc23)NC(=O)[C@H](Cc2ccccc2)NC(=O)[C@H](Cc2ccccc2)NC(=O)[C@@H](Cc2ccc(O)cc2)NC(=O)[C@H](CCCCN)NC(=O)[C@@H](N)CSSC[C@@H](C(=O)O)NC(=O)[C@H](CO)NC1=O", "note": "[Ex. 5, L-Cysteinyl-L-lysyl-D-tyrosyl-L-phenylalanyl-L-phenylalanyl-D-tryptophyl-L- lysyl-L-threonyl-L-phenylalanyl-L-threonyl-L-seryl-L-cysteine cyclic (1→12) disulfide] (H-CK[dY]FF[dW]KTFTSC-OH; disulfide 1-12)", "values": [{"measurement": "GH (duration of growth hormone suppression)", "setting": "[3]; 2 hours, control 84 ± 17, p<0.01", "value": "27 ± 5", "unit": "ng/mL"}, {"measurement": "GH (duration of growth hormone suppression)", "setting": "[3]; 2 hours, second experiment, control 80 ± 12", "value": "72 ± 21", "unit": "ng/mL"}, {"measurement": "GH (duration of growth hormone suppression)", "setting": "[3]; 4 hours, control 84 ± 22, p<0.05", "value": "33 ± 4", "unit": "ng/mL"}, {"measurement": "GH (duration of growth hormone suppression)", "setting": "[3]; 5 hours, control (printed 2 hours) 141 ± 51", "value": "113 ± 27", "unit": "ng/mL"}]}
{"smiles": "C[C@@H](O)[C@@H]1NC(=O)[C@H](Cc2ccccc2)NC(=O)[C@H]([C@@H](C)O)NC(=O)[C@H](CCCCN)NC(=O)[C@@H](Cc2c[nH]c3ccccc23)NC(=O)[C@H](Cc2ccccc2)NC(=O)[C@H](Cc2ccccc2)NC(=O)[C@@H](CCCNC(=N)N)NC(=O)[C@H](CCCCN)NC(=O)[C@@H](N)CSSC[C@@H](C(=O)O)NC(=O)[C@H](CO)NC1=O", "note": "[Ex. 6] (H-CK[dR]FF[dW]KTFTSC-OH; disulfide 1-12)", "values": [{"measurement": "INS", "setting": "[1]; [5]", "value": "5 ± 1", "unit": "µU/mL"}, {"measurement": "GLUN", "setting": "[2]; [6]", "value": "32 ± 5", "unit": "pg/mL"}, {"measurement": "GH (duration of activity)", "setting": "[3]; 2 hours, control 148 ± 25, p<0.01", "value": "53 ± 8", "unit": "ng/mL"}, {"measurement": "GH (duration of activity)", "setting": "[3]; 4 hours, control 73 ± 24, p<0.1", "value": "21 ± 4", "unit": "ng/mL"}, {"measurement": "GH", "setting": "[4]; [7]", "value": "34 ± 8", "unit": "ng/mL"}]}
{"smiles": "C[C@@H](O)[C@@H]1NC(=O)[C@H](CCCCN)NC(=O)[C@@H](Cc2c[nH]c3ccccc23)NC(=O)[C@H](Cc2ccccc2)NC(=O)[C@H](Cc2ccccc2)NC(=O)[C@@H](Cc2ccc(O)cc2)NC(=O)[C@H](CCCNC(=N)N)NC(=O)[C@@H](N)CSSC[C@H](C(=O)O)NC(=O)[C@H](CO)NC(=O)[C@H]([C@@H](C)O)NC(=O)[C@H](Cc2ccccc2)NC1=O", "note": "[L-Cysteinyl-L-arginyl-D-tyrosyl-L-phenylalanyl-L-phenylalanyl-D-tryptophyl- L-lysyl-L-threonyl-L-phenylalanyl-L-threonyl-L-seryl-D-cysteine cyclic (1→12) disuflide] (H-CR[dY]FF[dW]KTFTS[dC]-OH; disulfide 1-12)", "values": [{"measurement": "INS", "setting": "[1]; dose 100 μg/kg sc, control 43 ± 3", "value": "7 ± 2", "unit": "µU/mL"}, {"measurement": "INS", "setting": "[1]; dose 3,000 μg/kg sc, control 340 ± 17", "value": "48 ± 9", "unit": "µU/mL"}, {"measurement": "GLUN", "setting": "[2]; dose 100 μg/kg sc, control 46 ± 6, p>0.05", "value": "31 ± 4", "unit": "pg/mL"}, {"measurement": "GLUN", "setting": "[2]; dose 3,000 μg/kg sc, control 48 ± 5, p<0.01", "value": "23 ± 4", "unit": "pg/mL"}, {"measurement": "Plasma GH", "setting": "[3]; 500 μg/kg SC, 6 hours after injection, control 103 ± 17", "value": "152 ± 27", "unit": "ng/mL"}, {"measurement": "Plasma GH", "setting": "[3]; 1,000 μg/kg SC, 2 hours after injection, control 542 ± 145, p<0.01", "value": "30 ± 5", "unit": "ng/mL"}, {"measurement": "Plasma GH", "setting": "[3]; 1,000 μg/kg SC, 4 hours after injection, control 107 ± 25, p<0.01", "value": "37 ± 6", "unit": "ng/mL"}, {"measurement": "Plasma GH", "setting": "[3]; 1,000 μg/kg SC, 6 hours after injection, control 103 ± 17", "value": "114 ± 22", "unit": "ng/mL"}, {"measurement": "duration of growth hormone suppression (in words)", "setting": "[3]; summary of rat data", "value": "very prolonged activity in suppressing growth hormone blood levels"}, {"measurement": "GH", "setting": "[4]; dose 3,000 μg/kg sc, control 176 ± 33", "value": "17 ± 3", "unit": "ng/mL"}, {"measurement": "reduction of secretion of growth hormone, insulin and glucagon (in words)", "setting": "[4]; summary of rat data", "value": "effective agent for reducing secretion of growth hormone, insulin, and glucagon"}]}
{"smiles": "C[C@H](N)C(=O)NCC(=O)N[C@H]1CSSC[C@@H](C(=O)O)NC(=O)[C@H](CO)NC(=O)[C@H]([C@@H](C)O)NC(=O)[C@H](Cc2ccccc2)NC(=O)[C@H]([C@@H](C)O)NC(=O)[C@H](CCCCN)NC(=O)[C@H](Cc2c[nH]c3ccccc23)NC(=O)[C@H](Cc2ccccc2)NC(=O)[C@H](Cc2ccccc2)NC(=O)[C@H](CC(N)=O)NC(=O)[C@H](CCCCN)NC1=O", "note": "[SRIF, reference compound]", "values": [{"measurement": "INS", "setting": "[1]; dose 200 μg/kg sc, control 43 ± 3", "value": "31 ± 2", "unit": "µU/mL"}, {"measurement": "GLUN", "setting": "[2]; dose 200 μg/kg sc, control 46 ± 6, p<0.01", "value": "21 ± 4", "unit": "pg/mL"}]}
